Measured values taken from patent publication US12187672B2, “1,2-diacylglycerol compound, preparation method therefor, and immunomodulator containing same as active ingredient” (ENZYCHEM LIFESCIENCES CORPORATION, priority 2018, dated 2025).

Experiments:
CXCL8 (IL-8) = CXCL8 (IL-8) expression reduction in Gemcitabine-treated THP-1 cells (ELISA); format: cell-based, human; details: THP-1 cells; for CXCL8 [IL-8] concentration (average ± deviation): sample 100 μg/ml 1 h, then Gemcitabine 2 μg/ml 24 h; for reduction of CXCL8 (IL-8) expression/secretion: Gemcitabine-treated, 100 μg/ml
How it was run: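 Human THP-1 macrophage-like cells in RPMI/10% FBS, plated at 1×10^6 cells/ml, pretreated 1 h with compound, then stimulated with Gemcitabine (2 μg/ml) for 24 h at 37° C, 5% CO2. Secreted IL-8 in the supernatant was measured by sandwich ELISA, read at 450 nm.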

HL-60 cells = test: Migration of HL-60 cell line toward THP-1 culture supernatant (transmigration assay); format: cell-based, human; details: supernatant of THP-1 cells treated with sample 100 μg/ml 1 h, then Gemcitabine 2 μg/ml 24 h
How it was run: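 THP-1 cells pretreated 1 h with compounds, then stimulated with gemcitabine (2 μg/ml) for 24 h; supernatant placed in lower chamber. HL-60 cells (5×10^4/chamber) migrated through laminin I-coated upper chamber; migrated cells quantified by Calcein-AM fluorescence converted to cell number.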

STAT6 = test: IL-4-induced STAT6 activity, pGL4-STAT6 luciferase reporter in A549 cells; format: cell-based; details: sample 100 μg/ml 1 h
How it was run: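 A549 cells transiently transfected with pGL4-STAT6 reporter (24 h), pretreated with compound 1 h, then stimulated with IL-4 (2 ng/ml or 10 ng/ml) for 20 h. Cells lysed and luciferase luminescence read as STAT6 activity.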

IL-4 = test: PKC activator-induced IL-4 secretion reduction in EL-4 cells (ELISA); format: cell-based, mouse; details: for IL-4 concentration (average ± deviation): sample 100 μg/ml 2 h, then PKC activator 18 h; for decrease of IL-4 secretion/expression: PKC activator-treated, 100 μg/ml
How it was run: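 Mouse EL-4 lymphoma cells in DMEM/10% FBS pretreated 2 h with compound, then stimulated with 0.5 μg/ml PKC activator (PMA type) for 18 h at 37 °C. Secreted IL-4 in supernatant quantified by sandwich ELISA (OD 450 nm) and expressed as reduction rate.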

[1] = then IL-4 (10 ng/ml) 20 h, Table 10
[2] = then IL-4 (2 ng/ml) 20 h, Table 9

## CCCCC/C=C\C/C=C\CCCCCCCC(=O)OC(COC(=O)CCCCCCCCCCCCCCC)COC(=O)C1CC1 (stereo not drawn) [EC_A79]
CXCL8 (IL-8)
  CXCL8 [IL-8] concentration (average ± deviation): 108.7 ± 8.3 pg/µL
HL-60 cells
  Number of HL-60 cells migrated through Transwell: 12527.5 Cell Number
STAT6; [1]
  STAT6 activity_Luciferase activity (average ± deviation): 20037.7 ± 786.0
IL-4; Table 12
  IL-4 concentration (average ± deviation): 527 ± 17.9 pg/µL

## CCCCC/C=C\C/C=C\CCCCCCCC(=O)OC(COC(=O)CC)COC(=O)CCCCCCCCCCC (stereo not drawn) [EC_A91]
CXCL8 (IL-8)
  CXCL8 [IL-8] concentration (average ± deviation): 96.1 ± 3.6 pg/µL
HL-60 cells
  Number of HL-60 cells migrated through Transwell: 9429.8 Cell Number
STAT6; [1]
  STAT6 activity_Luciferase activity (average ± deviation): 22036.0 ± 4089.4
IL-4
  decrease of IL-4 secretion/expression: about 20%
IL-4; Table 12
  IL-4 concentration (average ± deviation): 446.0 ± 16.7 pg/µL

## CCCCC/C=C\C/C=C\CCCCCCCC(=O)OC(COC(=O)CCCCCCCCC)COC(=O)C(C)(C)C (stereo not drawn) [EC_A101]
CXCL8 (IL-8)
  CXCL8 [IL-8] concentration (average ± deviation): 118.1 ± 2.8 pg/µL
HL-60 cells
  Number of HL-60 cells migrated through Transwell: 4848.9 Cell Number
STAT6; [1]
  STAT6 activity_Luciferase activity (average ± deviation): 19438.7 ± 580.2
IL-4; Table 12
  IL-4 concentration (average ± deviation): 634.7 ± 3.21 pg/µL

## CCCCC/C=C\C/C=C\CCCCCCCC(=O)OC(COC(=O)CCCCCCCCC)COC(=O)C(C)C (stereo not drawn) [EC_A100]
CXCL8 (IL-8)
  CXCL8 [IL-8] concentration (average ± deviation): 115.1 ± 3.9 pg/µL
HL-60 cells
  Number of HL-60 cells migrated through Transwell: 8947.2 Cell Number
STAT6; [1]
  STAT6 activity_Luciferase activity (average ± deviation): 14212.0 ± 1008.8
IL-4; Table 12
  IL-4 concentration (average ± deviation): 539.7 ± 6.4 pg/µL

## CCCCC/C=C\C/C=C\CCCCCCCC(=O)OC(COC(=O)CCCCCCC)COC(=O)C(C)C (stereo not drawn) [EC_A88]
CXCL8 (IL-8)
  CXCL8 [IL-8] concentration (average ± deviation): 91.4 ± 3.4 pg/µL
HL-60 cells
  Number of HL-60 cells migrated through Transwell: 17552.5 Cell Number
STAT6; [1]
  STAT6 activity_Luciferase activity (average ± deviation): 17409.5 ± 1849.8
IL-4; Table 12
  IL-4 concentration (average ± deviation): 654.7 ± 0.6 pg/µL

## CCCCC/C=C\C/C=C\CCCCCCCC(=O)OC(COC(=O)CCC)COC(=O)CCCCCCC (stereo not drawn) [EC_A85]
CXCL8 (IL-8)
  CXCL8 [IL-8] concentration (average ± deviation): 94.4 ± 3.4 pg/µL
HL-60 cells
  Number of HL-60 cells migrated through Transwell: 7687.7 Cell Number
STAT6; [1]
  STAT6 activity_Luciferase activity (average ± deviation): 19878.2 ± 4338.5
IL-4
  decrease of IL-4 secretion/expression: about 20%
IL-4; Table 12
  IL-4 concentration (average ± deviation): 485.1 ± 19.2 pg/µL

## CCCCC/C=C\C/C=C\CCCCCCCC(=O)OC(COC(=O)CC)COC(=O)CCCCCCCCC (stereo not drawn) [EC_A97]
CXCL8 (IL-8)
  CXCL8 [IL-8] concentration (average ± deviation): 96.2 ± 0.2 pg/µL
HL-60 cells
  Number of HL-60 cells migrated through Transwell: 7440.6 Cell Number
STAT6; [1]
  STAT6 activity_Luciferase activity (average ± deviation): 16787.0 ± 4102.6
IL-4; Table 12
  IL-4 concentration (average ± deviation): 541.5 ± 20.5 pg/µL

## CCCCC/C=C\C/C=C\CCCCCCCC(=O)OC(COC(=O)CCCC)COC(=O)CCCCCCCCC (stereo not drawn) [EC_A99]
CXCL8 (IL-8)
  CXCL8 [IL-8] concentration (average ± deviation): 102.0 ± 19.3 pg/µL
HL-60 cells
  Number of HL-60 cells migrated through Transwell: 7164.9 Cell Number
STAT6; [1]
  STAT6 activity_Luciferase activity (average ± deviation): 17407.0 ± 1347.6
IL-4; Table 12
  IL-4 concentration (average ± deviation): 553.3 ± 39.8 pg/µL

## CCCCCC=CCC=CCCCCCCCC(=O)OC(COC(=O)CCCCCCC)COC(=O)C(C)(C)C (stereo not drawn) [EC_A89]
CXCL8 (IL-8)
  CXCL8 [IL-8] concentration (average ± deviation): 123.1 ± 0.0 pg/µL
HL-60 cells
  Number of HL-60 cells migrated through Transwell: 6969.9 Cell Number
STAT6; [1]
  STAT6 activity_Luciferase activity (average ± deviation): 18635.5 ± 846.4
IL-4; Table 12
  IL-4 concentration (average ± deviation): 620.1 ± 22.4 pg/µL

## CCCCC/C=C\C/C=C\CCCCCCCC(=O)OC(COC(=O)CCC)COC(=O)CCCCCCCCCCC (stereo not drawn) [EC_A92]
CXCL8 (IL-8)
  CXCL8 [IL-8] concentration (average ± deviation): 105.1 ± 0.2 pg/µL
HL-60 cells
  Number of HL-60 cells migrated through Transwell: 2891.6 Cell Number
STAT6; [1]
  STAT6 activity_Luciferase activity (average ± deviation): 17237.2 ± 317.7
IL-4
  decrease of IL-4 secretion/expression: about 20%
IL-4; Table 12
  IL-4 concentration (average ± deviation): 498.3 ± 45.6 pg/µL

## CCCCC/C=C\C/C=C\CCCCCCCC(=O)OC(COC(=O)CC)COC(=O)CCCCCCCCCCCCCCC (stereo not drawn) [EC_A78]
CXCL8 (IL-8)
  CXCL8 [IL-8] concentration (average ± deviation): 108.5 ± 4.9 pg/µL
HL-60 cells
  Number of HL-60 cells migrated through Transwell: 23396.6 Cell Number
STAT6; [1]
  STAT6 activity_Luciferase activity (average ± deviation): 19208.7 ± 2129.6
IL-4; Table 12
  IL-4 concentration (average ± deviation): 557 ± 11.5 pg/µL

## CCCCC/C=C\C/C=C\CCCCCCCC(=O)OC(COC(=O)CCCCCCCCC)COC(=O)C(C)CC (stereo not drawn) [EC_A102]
CXCL8 (IL-8)
  CXCL8 [IL-8] concentration (average ± deviation): 102.5 ± 4.4 pg/µL
HL-60 cells
  Number of HL-60 cells migrated through Transwell: 8091.5 Cell Number
STAT6; [1]
  STAT6 activity_Luciferase activity (average ± deviation): 18719.2 ± 2558.5
IL-4; Table 12
  IL-4 concentration (average ± deviation): 775.1 ± 11.5 pg/µL

## CCCCC/C=C\C/C=C\CCCCCCCC(=O)OC(COC(=O)CCCC)COC(=O)CCCCCCC (stereo not drawn) [EC_A86]
CXCL8 (IL-8)
  CXCL8 [IL-8] concentration (average ± deviation): 99.2 ± 4.9 pg/µL
HL-60 cells
  Number of HL-60 cells migrated through Transwell: 18542.0 Cell Number
STAT6; [1]
  STAT6 activity_Luciferase activity (average ± deviation): 18158.0 ± 3182.4
IL-4
  decrease of IL-4 secretion/expression: about 20%
IL-4; Table 12
  IL-4 concentration (average ± deviation): 476.0 ± 2.5 pg/µL

## CCCCC/C=C\C/C=C\CCCCCCCC(=O)OC(COC(=O)CCCCCC)COC(=O)CCCCCCCCCCCCCCC (stereo not drawn) [EC_A83]
CXCL8 (IL-8)
  CXCL8 [IL-8] concentration (average ± deviation): 107.7 ± 3.9 pg/µL
HL-60 cells
  Number of HL-60 cells migrated through Transwell: 7316.6 Cell Number
STAT6; [1]
  STAT6 activity_Luciferase activity (average ± deviation): 18788.2 ± 2805.4
IL-4; Table 12
  IL-4 concentration (average ± deviation): 637.9 ± 14.1 pg/µL

## CCCCC/C=C\C/C=C\CCCCCCCC(=O)OC(COC(=O)CCC)COC(=O)CCCCCCCCC (stereo not drawn) [EC_A98]
CXCL8 (IL-8)
  CXCL8 [IL-8] concentration (average ± deviation): 105 ± 2.0 pg/µL
HL-60 cells
  Number of HL-60 cells migrated through Transwell: 11056.8 Cell Number
STAT6; [1]
  STAT6 activity_Luciferase activity (average ± deviation): 14727.2 ± 129.2
IL-4; Table 12
  IL-4 concentration (average ± deviation): 584.2 ± 50.1 pg/µL

## CCCCC/C=C\C/C=C\CCCCCCCC(=O)OC(COC(=O)CCCC)COC(=O)CCCCCCCCCCC (stereo not drawn) [EC_A93]
CXCL8 (IL-8)
  CXCL8 [IL-8] concentration (average ± deviation): 110.9 ± 0.0 pg/µL
HL-60 cells
  Number of HL-60 cells migrated through Transwell: 6828.6 Cell Number
STAT6; [1]
  STAT6 activity_Luciferase activity (average ± deviation): 15562.5 ± 900.7
IL-4
  decrease of IL-4 secretion/expression: about 20%
IL-4; Table 12
  IL-4 concentration (average ± deviation): 507.9 ± 3.85 pg/µL

## CCCCC/C=C\C/C=C\CCCCCCCC(=O)OC(COC(=O)CC)COC(=O)CCCCCCC (stereo not drawn) [EC_A87]
CXCL8 (IL-8)
  CXCL8 [IL-8] concentration (average ± deviation): 134.4 ± 10.7 pg/µL
HL-60 cells
  Number of HL-60 cells migrated through Transwell: 7198.0 Cell Number
STAT6; [1]
  STAT6 activity_Luciferase activity (average ± deviation): 17258.7 ± 3007.1
IL-4
  decrease of IL-4 secretion/expression: about 20%
IL-4; Table 12
  IL-4 concentration (average ± deviation): 511.0 ± 0.6 pg/µL

## CCCCC/C=C\C/C=C\CCCCCCCC(=O)OC(COC(=O)CCCCCCCCCCCCCCC)COC(C)C (stereo not drawn) [EC_A21]
CXCL8 (IL-8)
  reduction of CXCL8 (IL-8) expression/secretion: about 20%
  CXCL8 [IL-8] concentration (average ± deviation): 86.2 ± 0.7 pg/µL
HL-60 cells
  Number of HL-60 cells migrated through Transwell: 1986.3 Cell Number
STAT6; [2]
  STAT6 activity_Luciferase activity (average ± deviation): 880.0 ± 50.0
IL-4; Table 11
  IL-4 concentration (average ± deviation): 488.8 ± 46.2 pg/µL

## CCCCC/C=C\C/C=C\CCCCCCCC(=O)OC(COC(C)=O)COC(=O)CCCCCCCCCCCCCCC (stereo not drawn) [EC-18, 1-palmitoyl-2-linoleoyl-3-acetylglycerol, reference compound]
CXCL8 (IL-8)
  reduction of CXCL8 (IL-8) expression/secretion: about 20%
  CXCL8 [IL-8] concentration (average ± deviation): 79.6 ± 6.0 pg/µL
HL-60 cells
  Number of HL-60 cells migrated through Transwell: 2697.2 Cell Number
STAT6; [2]
  STAT6 activity_Luciferase activity (average ± deviation): 462.5 ± 161.7
STAT6; [1]
  STAT6 activity_Luciferase activity (average ± deviation): 18878.0 ± 500.8
IL-4; Table 11
  IL-4 concentration (average ± deviation): 662.4 ± 42.4 pg/µL
IL-4; Table 12
  IL-4 concentration (average ± deviation): 429.2 ± 7.0 pg/µL

## CCCCC/C=C\C/C=C\CCCCCCCC(=O)OC(COC(=O)CCCCCCCCCCC)COC(=O)C(C)CC (stereo not drawn) [EC_A96]
CXCL8 (IL-8)
  CXCL8 [IL-8] concentration (average ± deviation): 103.7 ± 5.4 pg/µL
HL-60 cells
  Number of HL-60 cells migrated through Transwell: 15110.8 Cell Number
STAT6; [1]
  STAT6 activity_Luciferase activity (average ± deviation): 14593.2 ± 2168.7
IL-4; Table 12
  IL-4 concentration (average ± deviation): 582.9 ± 17.3 pg/µL
